# Assay results reported in patent publication US12102689B2, “Anti-CD22 antibody-maytansine conjugates and methods of use thereof” (R.P. Scherer Technologies, LLC, priority 2015, dated 2024).
# Key:
# Format in all cases: cell-based
# WSU-DLCL2 cells = assay: In vitro cytotoxicity (Cell Titer-Glo, 5 d); settings: Homo sapiens, WSUDLCL2, 120 h
# Procedure: (§1) The CD22-positive B-cell lymphoma cell lines, Ramos and WSU-DLCL2, were obtained from the ATCC and DSMZ cell banks, respectively. The cells were maintained in RPMI-1640 medium (Cellgro, Manassas, VA) supplemented with 10% fetal bovine serum (Invitrogen, Grand Island, NY) and Glutamax (Invitrogen). 24 h prior to plating, cells were passaged to ensure log-phase growth. On the day of plating, 5000 cells/well were seeded onto 96-well plates in 90 μL normal growth medium supplemented with 10 IU penicillin and 10 μg/mL streptomycin (Cellgro). Cells were treated at various concentrations with 10 μL of diluted analytes, and the plates were incubated at 37° C. in an atmosphere of 5% CO2. After 5 d, 100 μL/well of Cell Titer-Glo reagent (Promega, Madison, WI) was added, and luminescence was measured using a Molecular Devices SpectraMax M5 plate reader. GraphPad Prism software was used for data analysis.
# Ramos cells = assay: In vitro cytotoxicity (Cell Titer-Glo, 5 d); settings: Homo sapiens, 120 h
# Procedure: as §1
# MDR1+ WSU-DLCL2 cells = assay: In vitro cytotoxicity assay on MDR1-expressing cells
# Procedure: (§2) MDR1 (ABCB1) cDNA was obtained from Sino Biological and cloned into a pEF plasmid with a hygromycin selection marker. An AMAXA Nucleofector™ instrument was used to electroporate Ramos (ATCC CRL-1923) and WSU-DLCL2 (DSMZ ACC 575) cells according to the manufacturer's instructions. After selection with hygromycin (Invitrogen 10687010), the pools were enriched with paclitaxel treatment (25 nM for up to 10 days) to further select cells with functional MDR1. The resulting cells were maintained under hygromycin selection in RPMI (Gibco 21870-092) supplemented with 10% fetal bovine serum (FBS) and 1× GlutaMax (Gibco 35050-079).
# (§3) Cell lines were plated in 96-well plates (Costar 3610) at a density of 5×10^4 cells/well in 100 μL of growth media and allowed to rest for 5 h. Serial dilution of test samples was performed in RPMI at 6× the final concentration and 20 μL was added to the cells. After incubation at 37° C. with 5% CO2 for 5 days, viability was measured using a Promega CellTiter 96® AQueous One Solution Cell Proliferation Assay (G3581) according to the manufacturer's instructions. GI50 curves were calculated in GraphPad Prism using the ADC's drug-to-antibody ratio (DAR) value to normalize the dose to the payload concentration.
# MDR1+ Ramos cells = assay: as above; settings: MDR1+ Ramos vs wild-type
# Procedure: as §2, §3
structure (smiles),measurement,setting,value
"COc1cc2cc(c1Cl)N(C)C(=O)C[C@H](OC(=O)[C@H](C)N(C)C(C)=O)[C@]1(C)O[C@H]1[C@H](C)[C@@H]1C[C@@](O)(NC(=O)O1)[C@H](OC)/C=C/C=C(\C)C2 [free maytansine, maytansine]",IC50,WSU-DLCL2 cells,0.086 nM
same,IC50,Ramos cells,0.04 nM
same,potency on cotreatment with cyclosporin (MDR1 inhibitor),MDR1+ WSU-DLCL2 cells; MDR1+ WSU-DLCL2 cells plus cyclosporin,restored the original potency
same,fold less efficacious in MDR1-expressing cells,MDR1+ WSU-DLCL2 cells; MDR1+ WSU-DLCL2 vs wild-type,~10 fold
same,fold less efficacious in MDR1-expressing cells,MDR1+ Ramos cells,~10 fold
